Assay results published in patent US20140342065A1 (priority 2012, published 2014).

What was measured:
bacteria or yeast = settings: exposed one day (NaHS 50 mg, gas 40 ppm or saturated water 0.04% 1 ml), then sealed two months at room temperature
Source text: Control counterparts were also kept at room temperature within a closed environment. Then, the plates were removed from these environments, sealed and placed at room temperature for two months.

[1] = tested on: freshly cut chips of cantaloupe; test: NaHS solution fumigation of freshly cut chips of cantaloupe
Procedure: (§1) Aqueous NaHS solutions (0.25-3.5 mmol/L) could release H2S gas (10^−12˜10^−10 mol/L). H2S rapidly, reached to the highest levels within several minutes and maintained a constant concentration. […] The NaHS solution was renewed every 48 or 72 hours. The NaHS solution was placed in a sealed container separated by a partition board with pores on it. The fresh cut vegetables including Broccoli, Lettuce, Lotus Root, Yam, Pumpkin, Sweet Potato, Potato, etc, and the fresh cut fruits Apple, Pear, Kiwi Fruit, Tomato, Hami Melon, and Peach were placed above the board, while the NaHS solution was placed under the board. Therefore, the fresh cut vegetables and fruits were fumigated with H2S gas released from NaHS in the solution.
The control freshly cut chips of cantaloupe that were treated with water (0.0 mmol/L NaHS) lost their color and became brown, while the freshness of freshly cut chips of cantaloupe treated with 0.05 mmol/L-1.5 mmol/L NaHS solution was prolonged by 8-12 hours.

freshly cut tomatoes = test: NaHS solution fumigation of freshly cut tomatoes at breaker stage
Procedure: as §1
The control freshly cut tomatoes that were treated with water (0.0 mmol/L NaHS) gradually turned red, and reached 100% maturation on day 5, while the maturation time of freshly cut tomatoes treated with 0.5 mmol/L-3.5 mmol/L NaHS solution was prolonged by 4-5 days.

freshly cut broccoli = test: NaHS solution fumigation of freshly cut broccoli
Procedure: as §1
The controls of fresh cut broccoli that were treated with water (0.0 mmol/L NaHS) solution lost their edibility on day 3, while the shelf life of freshly cut broccoli treated with 0.25 mmol/L-1.75 mmol/L NaHS solution was prolonged by 2-3 days. […] The control of freshly cut broccoli treated with 0.0 mmol/L NaHS solution underwent rot process (due to physiological senescence and microbe infection) at 4 days, and the moldy rate reached 100%. In contrast, the treatment with 1.5 mmol/L H2S donor, NaHS, inhibited the infection by micro-organisms, and no infection appeared until day 9.

[2] = Release of H2S gas from aqueous NaHS solutions; assay type: physicochemical; settings: aqueous NaHS solutions 0.25-3.5 mmol/L
Procedure: as §1

S [NaHS, sodium hydrosulfide]
growth of bacteria and yeast on agar plates (bacteria or yeast): no growth was evident
freshness prolonged by ([1]; 0.05 mmol/L-1.5 mmol/L NaHS): 8 to 12 h
freshness prolonged by ([1]; 0.9 mmol/L-1.0 mmol/L NaHS (best)): 12 h
maturation time prolonged by (freshly cut tomatoes; 0.5 mmol/L-3.5 mmol/L NaHS, control 100% maturation on day 5): 4 to 5 days
senescence time prolonged by (freshly cut tomatoes; 1.5 mmol/L-2.0 mmol/L NaHS (best)): 5 days
shelf life prolonged by (freshly cut broccoli; 0.25 mmol/L-1.75 mmol/L NaHS, control lost edibility on day 3): 2 to 3 days
shelf life prolonged by (freshly cut broccoli; 1.5 mmol/L NaHS (most optimal)): 3 days
day until which no infection by micro-organisms appeared (freshly cut broccoli; 1.5 mmol/L NaHS, control moldy rate 100% at 4 days): 9 days
H2S gas released [2]: 10^−12˜10^−10 mol/L
